The term EC50 denotes the concentration at which the effect is half-maximal.

The target of the experiment is T1, GPR119 (Homo sapiens, UniProt Q8TDV5).
T1 construct: host or cells: CHO-K1 (CRE-bla reporter, doxycycline-induced)
T1 sequence (Q8TDV5 1-335): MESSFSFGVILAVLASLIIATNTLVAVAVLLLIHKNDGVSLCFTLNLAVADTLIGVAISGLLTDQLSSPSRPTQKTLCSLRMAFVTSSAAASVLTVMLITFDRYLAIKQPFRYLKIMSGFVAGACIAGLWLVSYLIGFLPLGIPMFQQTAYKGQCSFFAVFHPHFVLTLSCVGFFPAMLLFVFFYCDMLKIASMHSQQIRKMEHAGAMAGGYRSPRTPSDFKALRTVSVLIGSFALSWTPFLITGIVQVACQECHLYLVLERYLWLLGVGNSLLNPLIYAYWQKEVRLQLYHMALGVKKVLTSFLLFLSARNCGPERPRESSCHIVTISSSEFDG
The experiment in a line: Controlling Effect of GPR119 in CRE-bla CHO-K1 Cells (EC50). The experiment is classed as cell-based. As to conditions: GPR119 CRE-bla CHO-K1 cell line, 5 hr incubation with compound, β-lactamase LiveBLAzer-FRET B/G readout; read-out: controlling effect against GPR119 in CRE-bla CHO-K1 cell line (EC50). Here is the method:
Controlling Effect of GPR119 in CRE-bla CHO-K1 Cells (EC50)
The day before the experiment, GPR119 CRE-bla CHO-K1 cell line purchased from Invitrogen was seeded in a 96 black well plate in an amount of 80 μl at a density of 5×10^4 cells. After the seeding, 10 μl of doxycycline in a concentration of 1 μg/ml was added to each well and incubated in an incubator at 37° C. under 5% CO2 for about 16 to 20 hr.
The day of experiment, sample compounds were performed a 10-fold serial dilution with a culture medium at various concentrations of 1 uM to […]. Considering that the culture medium used in the seeding and doxycycline are together applied, the sample compounds were diluted to a 5-fold dilution of the planned concentration. 20 μl of the compound diluted with the culture medium was added to each well and incubated in the incubator for 5 hr. The compound-untreated group was added with 20 μl of 0.5% dimethyl sulfoxide (DMSO) diluted with the culture medium. After 5 hr from the incubation, substrate mixture of a 6-fold concentration were prepared; 6 μl of 1 mM LiveBLAzer™-FRET B/G(CCF4-AM) substrate, 60 μl of solution B, 904 μl of solution C and 30 μl of solution D. 12 μl of the substrate mixture was added to each well and allowed to be kept at room temperature for 2 hr with shading the light. Fluorescence intensity value of blue channel and green channel was determined by a fluorescence microplate reader at 409 nm/460 nm and 409 nm/[…] (excitation/emission), respectively. In order to confirm the controlling effect of the inventive compounds against GPR119, EC50 (half maximal effective concentration) was determined based on the determined values. EC50, the concentration at which 50% activity of β-lactamase, was determined according to the following Equation: Equation=[(Ti−Tz)/(C−Tz)]×100
[Wherein, Ti: Cell density of the compound-treated group; Tz: Cell density of the negative control group; and C: Cell density of the positive control group]
`CS(=O)(=O)c1ccc(-c2csc3c(OC4CCN(c5nc(CC6CC6)no5)CC4)ncnc23)cc1` [Example 52, 3-(cyclopropylmethyl)-5-(4-(7-(4-methanesulfonyl-phenyl)thieno[3,2-d]pyrimidin-4-yloxy)piperidin-1-yl)-1,2,4-oxadiazole]: the EC50 was less than 100 nM.
With `CC(C)c1noc(C2CCN(c3ncnc4c(-c5ccc(S(C)(=O)=O)c(F)c5)csc34)CC2)n1` [Example 13] the figure was more than 1000 nM; with `CC(C)c1noc(N2CCC(Oc3ncnc4c(-c5ccc(S(=O)(=O)C(C)C)cc5)csc34)CC2)n1` [Example 105, 4-[1-(3-isopropyl-[1,2,4]oxadiazol-5-yl)-piperidin-4-yloxy]-7-(4-isopropylsulfonyl-phenyl)-thieno[3,2-d]pyrimidine], less than 100 nM.
Take `CS(=O)(=O)c1ccc(-c2csc3c(OC4CCN(c5nccc(C(F)(F)F)n5)CC4)ncnc23)cc1` [Example 59]: the EC50 is more than 1000 nM.
With `COc1ccc(-c2csc3c(OC4CCN(c5nc(C(C)C)no5)CC4)ncnc23)c(Cl)c1` [Example 96, 5-(4-(7-(2-chloro-4-methoxyphenyl)thieno[3,2-d]pyrimidin-4-yloxy)piperidin-1-yl)-3-isopropyl-1,2,4-oxadiazole], the EC50 was less than 100 nM.
With `CCc1cnc(N2CCC(Oc3ncnc4c(-c5ccc(S(C)(=O)=O)cc5)csc34)CC2)nc1` [Example 55, 4-(1-(5-ethylpyrimidin-2-yl)piperidin-4-yloxy)-7-(4-methanesulfonyl-phenyl)thieno[3,2-d]pyrimidine], the EC50 is less than 100 nM.
With `CCc1cnc(N2CCC(Oc3ncnc4c(-c5ccc(C#N)cc5)cn(C)c34)CC2)nc1` [Example 43, 4-{4-[1-(5-ethylpyrimidin-2-yl)-piperidin-4-yloxy]-5-methyl-5H-pyrrolo[3,2-d]pyrimidin-7-yl}-benzonitrile] the figure was more than 1000 nM.
With `CCCS(=O)(=O)c1ccc(-c2csc3c(N4CCC(c5nc(C(C)C)no5)CC4)ncnc23)c(F)c1` [Example 24, 7-4-(2-fluoro-(4-propylsulfonyl)phenyl)-4-[4-(3-isopropyl-[1,2,4]oxadiazol-5-yl)-piperidin-1-yl]-thieno[3,2-d]pyrimidine] the figure was less than 100 nM; with `COC(=O)c1ccc(-c2csc3c(N4CCC(c5nc(C(C)C)no5)CC4)ncnc23)cc1` [Example 16, 4-{4-[4-(3-isopropyl-[1,2,4]oxadiazol-5-yl)-piperidin-1-yl]-thieno[3,2-d]pyrimidin-7-yl}-benzoic acid methyl ester], 100 to 1000 nM.
On to `CS(=O)(=O)c1ccc(-c2csc3c(OC4CCN(c5nc(-c6ccccc6)no5)CC4)ncnc23)c(F)c1` [Example 64, 5-(4-(7-(2-fluoro-4-methanesulfonyl-phenyl)thieno[3,2-d]pyrimidin-4-yloxy)piperidin-1-yl)-3-phenyl-1,2,4-oxadiazole], for which the EC50 is less than 100 nM.
With `CC(C)c1noc(C2CCN(c3ncnc4c(-c5ccc(S(=O)(=O)C6CCCC6)cc5)csc34)CC2)n1` [Example 23, 7-(4-(cyclopentylsulfonyl)phenyl)-4-[4-(3-isopropyl-[1,2,4]oxadiazol-5-yl)-piperidin-1-yl]-thieno[3,2-d]pyrimidine] the figure was less than 100 nM; with `CS(=O)(=O)c1ccc(-c2csc3c(OC4CCN(c5nc(C6CCCCC6)no5)CC4)ncnc23)c(F)c1` [Example 79, 7-(2-fluoro-4-methanesulfonyl-phenyl)-4-[1-(3-cyclohexyl-[1,2,4]oxadiazol-5-yl)piperidin-4-yloxy]thieno[3,2-d]pyrimidine], less than 100 nM.
For the compound `CS(=O)(=O)c1ccc(-c2csc3c(N4CCC(c5nc(C6CCCC6)no5)CC4)ncnc23)c(F)c1` [Example 19, 4-[4-(3-cyclopentyl-[1,2,4]oxadiazol-5-yl)-piperidin-1-yl]-7-(2-fluoro-4-methanesulfonyl-phenyl)-thieno[3,2-d]pyrimidine], the EC50 was less than 100 nM.
The value for `CCCS(=O)(=O)c1ccc(-c2csc3c(N4CCC(c5nc(C(C)C)no5)CC4)ncnc23)cc1` [Example 20, 4-[4-(3-isopropyl-[1,2,4]oxadiazol-5-yl)-piperidin-1-yl]-7-(4-(propylsulfonyl)phenyl)-thieno[3,2-d]pyrimidine] was less than 100 nM.
With `CCc1cnc(N2CCC(COc3ncnc4c(-c5ccc(S(C)(=O)=O)cc5)cn(C)c34)CC2)nc1` [Example 49, 4-((1-(5-ethylpyrimidin-2-yl)piperidin-4-yl)methoxy)-5-methyl-7-(4-methanesulfonyl-phenyl)-5H-pyrrolo[3,2-d]pyrimidine] the figure was 100 to 1000 nM; with `Cn1cc(-c2ccc(S(C)(=O)=O)cc2)c2ncnc(OC3CCN(C(=O)OC(C)(C)C)CC3)c21` [Example 25, tert-butyl 4-(5-methyl-7-(4-methanesulfonyl-phenyl)-5H-pyrrolo[3,2-d]pyrimidin-4-yloxy)piperidine-1-carboxylate], less than 100 nM; with `CCc1cnc(N2CCC(Oc3ncnc4c(-c5ccc(S(C)(=O)=O)cc5)csc34)C2)nc1` (stereo not drawn) [Example 57, 4-[1-(5-ethylpyrimidin-2-yl)-pyrrolidin-3-yloxy]-7-(4-methanesulfonyl-phenyl)-thieno[3,2-d]pyrimidine], less than 100 nM.
In the case of `CC(C)c1noc(C2CCN(c3ncnc4c(-c5ccc(C(=O)O)cc5)csc34)CC2)n1` [Example 15, 4-{4-[4-(3-isopropyl-[1,2,4]oxadiazol-5-yl)-piperidin-1-yl]-thieno[3,2-d]pyrimidin-7-yl}-benzoic acid], the EC50 lay in the range of 100 to 1000 nM.
As to `CC(C)N1CCC(Oc2ncnc3c(-c4ccc(S(C)(=O)=O)cc4)cn(C)c23)CC1` [Example 45, 4-(1-isopropyl-piperidin-4-yloxy)-7-(4-methanesulfonyl-phenyl)-5-methyl-5H-pyrrolo[3,2-d]pyrimidine], the concentration giving a half-maximal response (EC50) was in the range of 100 to 1000 nM.
As for `CC(=O)c1ccc(-c2csc3c(OC4CCN(c5nc(C(C)C)no5)CC4)ncnc23)cc1` [Example 103, 1-(4-{4-[1-(3-isopropyl-[1,2,4]oxadiazol-5-yl)-piperidin-4-yloxy]-thieno[3,2-d]pyrimidin-7-yl}-phenyl)-ethanone], the EC50 was less than 100 nM.
With `CC(C)(C)c1noc(N2CCC(Oc3ncnc4c(-c5ccc(S(C)(=O)=O)cc5F)csc34)CC2)n1` [Example 71, 7-(2-fluoro-4-methanesulfonyl-phenyl)-4-[1-(3-t-butyl-[1,2,4]oxadiazol-5-yl)piperidin-4-yloxy]thieno[3,2-d]pyrimidine] the figure was less than 100 nM; with `CC(C)c1noc(N2CCC(Oc3ncnc4c(-c5ccc(S(C)(=O)=O)cc5)cn(C)c34)CC2)n1` [Example 35, 3-isopropyl-5-(4-(5-methyl-7-(4-methanesulfonyl-phenyl)-5H-pyrrolo[3,2-d]pyrimidin-4-yloxy)piperidin-1-yl)-1,2,4-oxadiazole], less than 100 nM.
On to `CCc1noc(N2CCC(Oc3ncnc4c(-c5ccc(S(C)(=O)=O)cc5F)csc34)CC2)n1` [Example 61, 3-ethyl-5-(4-(7-(2-fluoro-4-methanesulfonyl-phenyl)thieno[3,2-d]pyrimidin-4-yloxy)piperidin-1-yl)-1,2,4-oxadiazole], for which the EC50 is less than 100 nM.
The value for `CS(=O)(=O)c1ccc(-c2csc3c(OC4CCN(c5ncccn5)CC4)ncnc23)c(F)c1` [Example 85, 7-(2-fluoro-4-methanesulfonyl-phenyl)-4-(1-pyrimidin-2-yl-piperidin-4-yloxy)-thieno[3,2-d]pyrimidine] was less than 100 nM.

The values above are taken from patent US8853213B2, “Bicyclic compound for modulating G protein-coupled receptors” (Hanmi Pharm. Co., Ltd, priority 2011, dated 2014).
